Measured values published in patent US8623862B2, “Derivatives of N-[(1H-pyrazol-1-yl)aryl]-1H-indole or 1H-indazole-3-carboxamide, preparation thereof and applications thereof in therapeutics” (Sanofi, priority 2011, dated 2014).

These molecules were tested on platelet aggregation (assay: Inhibition of platelet aggregation in vitro (rat blood)). Conditions: rat blood, in vitro; read-out: Inhibition of platelet aggregation in vitro (rat blood).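 Also: aggregation induced by ADP added as 4 µL of a 250 µM solution.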
Format: cell-based
Description: The measurements of platelet aggregation are performed at 37° C. in glass tubes (Chrono-Log—Kordia aggregometer).
Inhibition of Platelet Aggregation In Vitro (Rat Blood)
The blood is taken from male rats of the Sprague-Dawley strain, weighing 250-300 g.
The platelet-rich plasma (PRP) is obtained by centrifugation of the blood at 300 g for 5 minutes, and the measurements of platelet aggregation are performed as described above.
The results are calculated using the area under the curve of absorbance measured for 6 minutes, and expressed as percentage inhibition.

SMILES | IC50 [nM]
CCCC(=O)c1cnn(-c2ccc(NC(=O)c3cn(CC(=O)N(C)C)c4cc(C)c(C)cc34)cc2)c1C [Compound 106] | 2210
CCCC(=O)c1cnn(-c2ccc(NC(=O)c3cn(CC(=O)N(C)CCO)c4cc(C)c(C)cc34)cc2)c1C [Compound 108] | 980
CCCC(=O)c1cnn(-c2ccc(NC(=O)c3cn(CC(=O)NC)c4cc(C)c(C)cc34)cc2)c1C [Compound 109] | 2420
CCCC(=O)c1cnn(-c2ccc(NC(=O)c3cn(CC(=O)N(C)CCN(C)C)c4cc(C)c(C)cc34)cc2)c1C [Compound 110] | 3990
CCCC(=O)c1cnn(-c2ccc(NC(=O)c3cn(CC(=O)N4CCN(C)CC4)c4cc(Cl)c(Cl)cc34)cc2)c1C [Compound 111] | 3700
CCCC(=O)c1cnn(-c2ccc(NC(=O)c3cn(CC(=O)N4CCN(C)CC4)c4cc(C)c(Br)cc34)cc2)c1C [Compound 112] | 360
CCCC(=O)c1cnn(-c2ccc(NC(=O)c3cn(CC(=O)N4CCN(C)CC4)c4cc(C)c(Cl)cc34)cc2)c1C [Compound 113] | 620
CCCC(=O)c1cnn(-c2ccc(NC(=O)c3cn(CC(=O)N4CCN(C)CC4)c4ccc(C)cc34)cc2)c1C [Compound 114] | 270
CCCC(=O)c1cnn(-c2ccc(NC(=O)c3cn(CC(=O)N4CCN(CCO)CC4)c4ccc(C)cc34)cc2)c1C [Compound 116] | 260
CCCC(=O)c1cnn(-c2ccc(NC(=O)c3cn(CC(=O)N4CCN(CC)CC4)c4ccc(C)cc34)cc2)c1C [Compound 117] | 500
CCCC(=O)c1cnn(-c2ccc(NC(=O)c3cn(CC(=O)N4CCN(CC(F)F)CC4)c4ccc(C)cc34)cc2)c1C [Compound 118] | 290
CCCC(=O)c1cnn(-c2ccc(NC(=O)c3cn(CC(=O)N4CCC(N(C)C)C4)c4ccc(C)cc34)cc2)c1C (centres unmarked) [Compound 120] | 270
CCCC(=O)c1cnn(-c2ccc(NC(=O)c3cn(CC(=O)N4CCN(CC5CC5)CC4)c4ccc(C)cc34)cc2)c1C [Compound 121] | 1060
CCCC(=O)c1cnn(-c2ccc(NC(=O)c3cn(CC(=O)N4CCN(C5CC5)CC4)c4ccc(C)cc34)cc2)c1C [Compound 122] | 450
CCCC(=O)c1cnn(-c2ccc(NC(=O)c3cn(CC(=O)N4CCN5CCCC5C4)c4ccc(C)cc34)cc2)c1C (centres unmarked) [Compound 123] | 350
CCCC(=O)c1cnn(-c2ccc(NC(=O)c3cn(CC(=O)N4CCN(C(C)C)CC4)c4ccc(C)cc34)cc2)c1C [Compound 124] | 210
CCCC(=O)c1cnn(-c2ccc(NC(=O)c3cn(CC(=O)N4CCCC(N(C)C)C4)c4ccc(C)cc34)cc2)c1C (centres unmarked) [Compound 125] | 580
CCCC(=O)c1cnn(-c2ccc(NC(=O)c3cn(CC(=O)N(C)CCNC)c4ccc(C)cc34)cc2)c1C [Compound 126] | 760
CCCC(=O)c1cnn(-c2ccc(NC(=O)c3cn(CC(=O)N4CCOCC4)c4ccc(C)cc34)cc2)c1C [Compound 128] | 290
CCCC(=O)c1cnn(-c2ccc(NC(=O)c3cn(CC(=O)N4CCN(CC(F)(F)F)CC4)c4ccc(C)cc34)cc2)c1C [Compound 129] | 650

SMILES | IC50 [nM]
CCCC(=O)c1cnn(-c2ccc(NC(=O)c3cn(CC(=O)N4CCCN(C)CC4)c4ccc(C)cc34)cc2)c1C [Compound 130] | 470
CCCC(=O)c1cnn(-c2ccc(NC(=O)c3cn(CC(=O)NCCn4ccnc4)c4ccc(C)cc34)cc2)c1C [Compound 134] | 950
CCCC(=O)c1cnn(-c2ccc(NC(=O)c3cn(CC(=O)N4CCN(C)CC4)c4ccc(OC)cc34)cc2)c1C [Compound 136] | 400
CCCC(=O)c1cnn(-c2ccc(NC(=O)c3cn(CC(=O)N4CCCCC4CN4CCCC4)c4ccc(C)cc34)cc2)c1C (centres unmarked) [Compound 141] | 640
CCCC(=O)c1cnn(-c2ccc(NC(=O)c3cn(CC(=O)N4CCN(CCOCCO)CC4)c4ccc(Cl)cc34)cc2)c1C [Compound 144] | 190
CCCC(=O)c1cnn(-c2ccc(NC(=O)c3cn(CC(=O)N4CCN(CCO)CC4)c4ccc(Cl)cc34)cc2)c1C [Compound 146] | 100
CCCC(=O)c1cnn(-c2ccc(NC(=O)c3cn(CC(=O)N4CCN(CCS(C)(=O)=O)CC4)c4ccc(Cl)cc34)cc2)c1C [Compound 148] | 150
CCCC(=O)c1cnn(-c2ccc(NC(=O)c3cn(CC(=O)N4CCC(N5CCOCC5)CC4)c4ccc(Cl)cc34)cc2)c1C [Compound 149] | 410
CCCC(=O)c1cnn(-c2ccc(NC(=O)c3cn(CC(=O)N4CCN(CCN(C)C)CC4)c4ccc(Cl)cc34)cc2)c1C [Compound 150] | 240
CCCCN1CCN(C(=O)Cn2cc(C(=O)Nc3ccc(-n4ncc(C(=O)CCC)c4C)cc3)c3cc(Cl)ccc32)CC1 [Compound 151] | 250
CCCC(=O)c1cnn(-c2ccc(NC(=O)c3cn(CC(=O)N4CCN(CCC(=O)OCC)CC4)c4ccc(Cl)cc34)cc2)c1C [Compound 153] | 290
CCCC(=O)c1cnn(-c2ccc(NC(=O)c3cn(CC(=O)N4CCN(CC(=O)N(C)C)CC4)c4ccc(Cl)cc34)cc2)c1C [Compound 154] | 150
CCCC(=O)c1cnn(-c2ccc(NC(=O)c3cn(CC(=O)N4CCN(CC(=O)OCC)CC4)c4ccc(Cl)cc34)cc2)c1C [Compound 155] | 260
CCCC(=O)c1cnn(-c2ccc(NC(=O)c3cn(CC(=O)N4CCN(CCC)CC4)c4ccc(Cl)cc34)cc2)c1C [Compound 156] | 300
CCCC(=O)c1cnn(-c2ccc(NC(=O)c3cn(CC(=O)N4CCN(C)CC4)c4cc(F)c(Cl)cc34)cc2)c1C [Compound 157] | 180
CCCC(=O)c1cnn(-c2ccc(NC(=O)c3cn(CC(=O)N4CCN(CCOC)CC4)c4cc(F)c(Cl)cc34)cc2)c1C [Compound 158] | 340
CCCC(=O)c1cnn(-c2ccc(NC(=O)c3cn(CC(=O)N4CC(C)NC(C)C4)c4ccc(Cl)cc34)cc2)c1C (centres unmarked) [Compound 159] | 410
CCCC(=O)c1cnn(-c2ccc(NC(=O)c3cn(CC(=O)N4CCN(C)CC4)c4ccc(C#N)cc34)cc2)c1C [Compound 160] | 1380
CCCC(=O)c1cnn(-c2ccc(NC(=O)c3cn(CC(=O)N4CCN(CCOCC)CC4)c4ccc(Cl)cc34)cc2)c1C [Compound 161] | 370
CCCC(=O)c1cnn(-c2ccc(NC(=O)c3cn(CC(=O)N4CCN(CC(=O)NC)CC4)c4ccc(Cl)cc34)cc2)c1C [Compound 163] | 290

Same assay, conditions: rat platelet-rich plasma, ADP-induced aggregation, area under the curve of absorbance for 6 minutes; read-out: Inhibition of platelet aggregation in vitro (rat blood);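 also: aggregation induced by ADP added as 4 µL of a 250 µM solution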

SMILES | IC50 [nM]
CCCC(=O)c1cnn(-c2ccc(NC(=O)c3cn(CC(=O)N4CCN(CC(=O)NC5CC5)CC4)c4ccc(Cl)cc34)nn2)c1C [Compound 81] | 40
CCCC(=O)c1cnn(-c2ccc(NC(=O)c3cn(CC(=O)N4CCN(Cc5noc(C)n5)CC4)c4ccc(Cl)cc34)nn2)c1C [Compound 82] | 50
CCCC(=O)c1cnn(-c2ccc(NC(=O)c3cn(CC(=O)NCC(C)(C)N(C)C)c4ccc(Cl)cc34)nn2)c1C [Compound 83] | 330
CCCC(=O)c1cnn(-c2ccc(NC(=O)c3cn(CC(=O)N4CCN5CCCC5C4C)c4ccc(Cl)cc34)nn2)c1C (centres unmarked) [Compound 84] | 90
CCCC(=O)c1cnn(-c2ccc(NC(=O)c3cn(CC(=O)N4CCN(Cc5ccc(OC)c(F)c5)CC4)c4ccc(Cl)cc34)nn2)c1C [Compound 85] | 100
CCCC(=O)c1cnn(-c2ccc(NC(=O)c3cn(CC(=O)N4CC(N5CCCCC5)C4)c4ccc(Cl)cc34)nn2)c1C [Compound 86] | 390
CCCC(=O)c1cnn(-c2ccc(NC(=O)c3cn(CC(=O)N4CCN(CC(=O)OC)CC4)c4ccc(Cl)cc34)nn2)c1C [Compound 87] | 40
CCCC(=O)c1cnn(-c2ccc(NC(=O)c3cn(CC(=O)N4CC5CCCN5CC4C)c4ccc(Cl)cc34)nn2)c1C (centres unmarked) [Compound 88] | 90
CCCC(=O)c1cnn(-c2ccc(NC(=O)c3cn(CC(=O)N4CC5CCCCN5CC4C)c4ccc(Cl)cc34)nn2)c1C (centres unmarked) [Compound 89] | 170
CCCC(=O)c1cnn(-c2ccc(NC(=O)c3cn(CC(=O)N(C)C4CC4)c4ccc(Cl)cc34)nn2)c1C [Compound 90] | 60
CCCC(=O)c1cnn(-c2ccc(NC(=O)c3cn(CC(=O)N(C)CC4CCOC4)c4ccc(Cl)cc34)nn2)c1C (centres unmarked) [Compound 91] | 120
CCCC(=O)c1cnn(-c2ccc(NC(=O)c3cn(CC(=O)N4CCN(Cc5ccc(F)cc5)CC4)c4ccc(Cl)cc34)nn2)c1C [Compound 92] | 200
CCCC(=O)c1cnn(-c2ccc(NC(=O)c3cn(CC(=O)N4CCN(CCOCC)CC4)c4ccc(Cl)cc34)nn2)c1C [Compound 93] | 150
CCCC(=O)c1cnn(-c2ccc(NC(=O)c3cn(CC(=O)N4CCC(OC)CC4)c4ccc(Cl)cc34)nn2)c1C [Compound 94] | 180
CCCC(=O)c1cnn(-c2ccc(NC(=O)c3cn(CC(=O)N4CCN(CCO)CC4)c4ccc(Cl)cc34)nn2)c1C [Compound 95] | 50
CCCC(=O)c1cnn(-c2ccc(NC(=O)c3cn(CC(=O)NCc4cc(C)no4)c4ccc(Cl)cc34)nn2)c1C [Compound 96] | 930
CCCC(=O)c1cnn(-c2ccc(NC(=O)c3cn(CC(=O)N(C)CCN(C)C)c4ccc(Cl)cc34)nn2)c1C [Compound 97] | 90
CCCC(=O)c1cnn(-c2ccc(NC(=O)c3cn(CC(=O)N4CCN(CCN(C)C)CC4)c4ccc(Cl)cc34)nn2)c1C [Compound 98] | 70
CCCC(=O)c1cnn(-c2ccc(NC(=O)c3cn(CC(=O)N4CCCN(C)CC4)c4ccc(Cl)cc34)nn2)c1C [Compound 99] | 110
CCCC(=O)c1cnn(-c2ccc(NC(=O)c3cn(CC(=O)N4CCN(CC(=O)N(C)C)CC4)c4ccc(Cl)cc34)nn2)c1C [Compound 101] | 110
CCCC(=O)c1cnn(-c2ccc(NC(=O)c3cn(CC(=O)N4CCN(Cc5ccncc5)CC4)c4ccc(Cl)cc34)nn2)c1C [Compound 102] | 30
CCCC(=O)c1cnn(-c2ccc(NC(=O)c3cn(CC(=O)N4CC(N5CCOCC5)C4)c4ccc(Cl)cc34)nn2)c1C [Compound 104] | 100
